Laboratory results reported in patent EP4778933A1 (Chengdu Hyperway Pharmaceuticals Co., Ltd., priority 2023, dated 2025).
Read-outs that look alike come from different tables or passages of the source.

What was measured:
[1] = test system: LoVo (KRAS G13D); test: 3D cell proliferation inhibition test (CellTiter-Glo 3D, 7 days), LoVo; type: cell-based; settings: Homo sapiens, 168 h, read-out: Inhibitory activity on cell proliferation (IC50) LoVo (KRAS G13D)
Experimental: (§1) The diluted compounds to be tested were added to 384-well low-adhesion KRAS mutant types (such as GP2D, NCI H358, LoVo, RKN and KP2) of cell culture plates by using a nanoliter pipetting system (LABCYTE, P-0200). Then, the cells were plated and incubated in a 37°C, 5% CO2 incubator for 7 days. Afterward, CellTiter-Glo® 3D reagent was added, and the luminescent values were read by an Envision multifunctional microplate reader (the luminescent signal is proportional to the amount of ATP in the system, and the ATP content directly represents the number of viable cells in the system). Finally, the IC50 values (half-maximal inhibitory concentration) of the compounds were obtained by the XLFIT software using the nonlinear fitting formula.
(§2) • a) The diluted compounds to be tested were added to 384-well low-adhesion KRAS mutant types of cell culture plates by using a nanoliter pipetting system. • b) Cells were seeded into the 384-well plates in a) and then centrifuged at 1000 rpm for 1 min at room temperature, with a final DMSO concentration of compound being 0.5%. The plates were then incubated in a 5% CO2 constant-temperature incubator at 37°C for 7 days. • c) CellTiter-Glo® 3D was added to the 384-well cell culture plates in b), shaken in the dark, and incubated at room temperature. • d) The luminescence values were read by using an Envision multifunctional microplate reader. […]

[2] = test system: KP2 (KRAS G12R); test: 3D cell proliferation inhibition test (CellTiter-Glo 3D, 7 days), KP2; type: cell-based; settings: 168 h, read-out: Inhibitory activity on cell proliferation (IC50) KP2 (KRAS G12R)
Experimental: as §1, §2

[3] = In vivo pharmacokinetic test in mice; settings: 30 mg/kg, female BALB/c mice, single dose 30 mg/kg, plasma
Experimental: Each test compound was administered orally once to female BALB/c mice for pharmacokinetic study. The test compounds were prepared on the day of administration. The oral administration solvent: 50 mM sodium citrate (pH 5.0) + 10% captisol. The oral administration was conducted in a dose of 30 mg/kg. The animals were fasted for 10-14 h before oral administration, and the feeding was resumed 4 h after administration. Pharmacokinetic samples were collected through the orbit. The collection time points were: 15 min, 30 min, 1 h, 2 h, 4 h, 6 h, 8 h and 24 h after administration. Three whole blood samples were collected at each time point, with a collection volume of about 0.2 mL, and anticoagulated with sodium heparin. After blood samples were collected, they were immediately placed on ice and centrifuged within 1 h to isolate plasma (centrifugation conditions: 8000 rpm, 1 min, 2-8°C). The collected plasma was stored in a -20°C refrigerator before analysis. The concentrations of compounds in the plasma samples were determined using an LC-MS/MS analysis method.

[4] = test system: KRAS G12D-mediated ERK phosphorylation; test: Inhibition of KRAS G12D-mediated ERK phosphorylation in AGS cells (in-cell pERK/GAPDH immunofluorescence); type: cell-based; settings: AGS cells, 3 h incubation, read-out: Inhibitory activity on ERK phosphorylation (IC50) AGS-G12D
How it was run: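 AGS, SW480, NCI H358 and KP2 cells were seeded overnight, then treated with compounds for 3 h at 37°C. After fixation, permeabilization and blocking, pERK and GAPDH were immunostained and read by two-colour infrared fluorescence. The pERK/GAPDH ratio was normalized to DMSO and 10 µM reference controls, and IC50 was fitted with a four-parameter logistic model.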

[5] = test system: NCI H358 (KRAS G12C); test: 3D cell proliferation inhibition test (CellTiter-Glo 3D, 7 days), NCI H358; type: cell-based; settings: Homo sapiens, NCI-H358, 168 h, read-out: Inhibitory activity on cell proliferation (IC50) NCI H358 (KRAS G12C)
Experimental: as §1, §2

[6] = test system: human ovarian cancer RKN mouse xenograft tumors; test: In vivo drug efficacy, RKN subcutaneous xenograft tumor model; set-up: species or system Balb/c nude mice; settings: 50 mg/kg, PO; for inhibitory effects on human ovarian cancer RKN mouse xenograft tumors: BID, 28 days; for Tumor volume inhibition rate (TGI): RKN xenograft, BID × 28, day 28
Experimental: A subcutaneous xenograft tumor model of human ovarian cancer RKN (derived from uterine leiomyosarcoma) cells was established in Balb/c nude mice. RKN tumor cells resuspended in Ham's F12 medium were inoculated subcutaneously on the right side of the experimental animals at 5×10^6 + gel/0.1 mL. When the tumor grew to about 150-200 mm^3, 20 animals having relatively uniform tumor volumes were selected for group administration, with a total of 4 groups, 5 animals in each group. On the day of the experiment, the animals were given the corresponding drugs according to the groups. The first group G1 was set as a solvent group, and 50 mM citrate buffer (pH 5.0) + 10% Captisol was given by gavage alone. The second group G2 was given a 50 mM citrate buffer (pH 5.0) + 10% Captisol of compound 21. The third group G3 was given a 50 mM citrate buffer (pH 5.0) + 10% Captisol of compound 26. The fourth group G4 was given a 50mM citrate buffer (pH 5.0) + 10% Captisol of compound 31. Table 7: Study on effect of test substances on animal tumor size in the human ovarian cancer RKN mouse xenograft tumor model
During the experiment, the body weight and tumor size of the animals were measured twice a week, and the clinical symptoms of the animals were observed and recorded every day. Each drug administration was based on the most recent weighing of the animals.
The tumor was measured with a digital vernier caliper to measure the length (a) and width (b). The tumor volume (TV) was calculated using the following formula: TV = a × b^2 /2. [formula]

[7] = test system: RKN (KRAS G12V); test: 3D cell proliferation inhibition test (CellTiter-Glo 3D, 7 days), RKN; type: cell-based; settings: 168 h, read-out: Inhibitory activity on cell proliferation (IC50) RKN (KRAS G12V)
Experimental: as §1
• a) The diluted compounds to be tested were added to 384-well low-adhesion KRAS mutant types of cell culture plates by using a nanoliter pipetting system. • b) Cells were seeded into the 384-well plates in a) and then centrifuged at 1000 rpm for 1 min at room temperature, with a final DMSO concentration of compound being 0.5%. The plates were then incubated in a 5% CO2 constant-temperature incubator at 37°C for 7 days. • c) CellTiter-Glo® 3D was added to the 384-well cell culture plates in b), shaken in the dark, and incubated at room temperature. • d) The luminescence values were read by using an Envision multifunctional microplate reader.
The IC50 (half-maximal inhibitory concentration) values of the compounds were obtained by using XLFIT software according to the following nonlinear fitting formula: Y = Bottom + (Top−Bottom)/(1+10^(∧)((LogIC50−X)×HillSlope)) [formula] • X: log value of compound concentration. • Y: inhibition rate (%) [formula] • Negative control: DMSO. • Positive control: Medium only.

| SMILES | IC50 [1] | IC50 [2] | AUC ([3]; mouse, in vivo, po, read-out: AUC) | Cmax ([3]; mouse, in vivo, po, read-out: Cmax) | IC50 ([4]; Homo sapiens, AGS, 3 h) | IC50 [5] | inhibitory effects on human ovarian cancer RKN mouse xenograft tumors [6] | Tumor volume inhibition rate (TGI) [6] | IC50 [7] | AUC ([3]; oral) | Cmax ([3]; oral) | IC50 [4] |
| --- | --- | --- | --- | --- | --- | --- | --- | --- | --- | --- | --- | --- |
| CC1(O)COCCN(c2nc(OCC34CCCN3C(c3cc(F)c(F)c(F)c3)CC4)nc3c(F)c(-c4cccc5sc(N)c(C#N)c45)c(Br)cc23)C1 (single isomer, unassigned) [Example 26, 2-amino-4-[6-bromo-8-fluoro-4-(6-hydroxy-6-methyl-1,4-oxazepan-4-yl)-2-({[3-(3,4,5-trifluoropheny 1)-2,3,5,6,7,7a-hexahydro-1H-pyrrolizin-7a-yl]methyl}oxy)quinazolin-7-yl]benzo[b]thiophene-3-carb onitrile] | 14.2 nM | 56.6 nM | 15800 ng·h/mL | 4880 ng/mL | 2.7 nM | 1.03 nM | significant inhibitory effects | 116% | 4.32 nM | – | – | – |
| CC1(O)COCCN(c2nc(OCC34CCCN3C(c3cc(F)c(F)c(F)c3)CC4)nc3c(F)c(-c4cccc5sc(N)c(C#N)c45)c(I)cc23)C1 (single isomer, unassigned) [Example 31, 2-amino-4-[6-iodo-8-fluoro-4-(6-hydroxy-6-methyl-1,4-oxazepan-4-yl)-2-({[3-(3,4,5-trifluorophenyl)-2,3,5,6,7,7a-hexahydro-1H-pyrrolizin-7a-yl]methyl}oxy)quinazolin-7-yl]benzo[b]thiophene-3-carbonitrile] | 20.6 nM | 59.1 nM | – | – | – | 0.69 nM | significant inhibitory effects | 116% | 3.69 nM | 20953 ng·h/mL | 5124 ng/mL | 1.9 nM |
